Patent US20090197922A1, “COMPOSITIONS AND METHODS FOR TREATING PULMONARY HYPERTENSION” (The University of Chicago, priority 2006, published 2009)

Assays:
[1] = system: hypoxia-induced model of pulmonary hypertension in Dahl SS rats; assay: Echocardiography in hypoxia/SU5416 model of pulmonary hypertension; type: in vivo, rat; set-up: CO (PA): unit not given beside the values; RVAW / LVPW / CO (Ao) / MPA: unit not given here; conditions: echocardiogram
Description: As part of the spectrum of sorafenib's pharmacologic activity overlaps with SU5416, a study was performed to determine whether sorafenib had similar effects or with additional mechanisms of inhibitory activity could counteract the effects of SU5416. […] Echocardiograms were performed on all rats at the start of the study. Except for the normoxia group, all rats were maintained in a hypoxia chamber with a partial pressure of oxygen of 10% FiO2 for the duration of the study. Rats in the two SU5416 groups received one subcutaneous injection of SU5416 at the start of the study (20 mg/kg). Stock sorafenib solutions were prepared every three days, crushing and dissolving sorafenib tablets in EL/ethanol (50:50; Sigma Cremophor EL, 95% ethyl alcohol) at final concentration of 4 mg/mL, protected from light exposure and stored at room temperature. Final dosing solutions were prepared on the day of use by dilution of the stock solution to 1 mg/mL with water and administered by gavage to the rats daily. After 3 weeks, all rats had echocardiography and hemodynamic studies. Organ and blood specimens were obtained for further evaluation. […] RV 3DE measurements were also determined (diameters+area), A=RV major diameter, B=RV annulus diastolic diameter & area, C=RV at ⅓ RV major diameter & area, D=RV at ⅔ RV major diameter & area.
(§1) Echocardiograms were performed on all rats at the start of the experiment. Except for the normoxia group, all rats were maintained in a hypoxia chamber with a partial pressure of oxygen of 10% FiO2 for the duration of the experiment. Rats in the 2 SU5416 groups received one subcutaneous injection of SU5416 at the start of the experiment (20 mg/kg). Stock sorafenib solutions were prepared every three days, crushing and dissolving sorafenib tablets in EL/ethanol (50:50; Sigma Cremophor EL, 95% ethyl alcohol) at final concentration of 4 mg/mL, protected from light exposure and stored at room temperature. Final dosing solutions were prepared on the day of use by dilution of the stock solution to 1 mg/mL with water and administered by gavage to the rats daily. After 3 weeks, all rats had echocardiography and hemodynamic studies. Organ and blood specimens were obtained for further evaluation.

rat lung tissue = assay: Expression profiling of rat lung tissue RNA (Rat Chip II, Affymetrix); type: in vivo; conditions: compared to normoxia; GCRMA normalization, SAM (δ>0.639, minimum fold change>1.7)
Source text: To study potential mechanisms of sorafenib effects on PH RNA was isolated from rat lung tissue and analyzed using the Rat Chip II (Affymetrix). […] Mechanisms of PAH pathobiology is poorly understood therefore, to explore potential mechanistic pathways the inventors conducted bioinformatic studies and expression profiling. […] The candidate genes identified fell into various gene ontology classes, for example 4% were in the lung development and growth factors class (e.g., Bambi, Tgfb3, Ltbp2), 13% in the cell migration/ECM class (e.g., Itga3_predicted, Cspg4, Cxcll2, Reln, Col18a1, Cthrc1, Hmgcr, Cnn1, Col6a2, Jag2), 4% in the apoptosis class (e.g., Anzal, Col18a1, Jag2), 4% in the smooth muscle/fiber formation class (e.g., Des, Tpm3, Jph2), 10% in the cell proliferation class (e.g., Anxal, Timp1, Lamb—1 predicted, Cspg4, Cxcll2, Gja4, Jag2, Tgfb3), 6% in the blood vessel development class (e.g., Cxcll2, Cspg4, Gja4, Col18a1, Serpine1), and 5% in the angiogenesis class (Cxcl12, Cspg4, Col18a1, Serpine1).

[2] = Body weight of rats in hypoxia/SU5416 study; type: in vivo, rat; conditions: Dahl SS rats
Description: as §1, with “Fifteen Dahl Salt Sensitive strain rats were divided into 5 groups: normoxia+vehicle (normal, healthy control), hypoxia+vehicle (hypoxia control), hypoxia+SU5416 (positive control), hypoxia+sorafenib (safety comparison with SU5416), and hypoxia+sorafenib+SU5416 (therapeutic activity assessment). Echocardiograms” for “Echocardiograms”

[3] = PRE (baseline at start of experiment)

In the case of `CNC(=O)c1cc(Oc2ccc(NC(=O)Nc3ccc(Cl)c(C(F)(F)F)c3)cc2)ccn1` [Sorafenib], the “CI (Ao)” value ([1]; POST (after 3 weeks hypoxia)) is reported as 1.00 ± 0.80, the “CI(PA)” value ([1]; POST (after 3 weeks hypoxia)) is reported as 0.82 ± 0.17 and the “CO (Ao)” value ([1]; POST (after 3 weeks hypoxia)) is reported as 326 ± 246. For the same molecule, the “CO (PA)” value ([1]; POST (after 3 weeks hypoxia)) was 271 ± 48, the “FS (%)” value ([1]; POST (after 3 weeks hypoxia)) was 68 ± 20% and the “LV Mass (gram)” value ([1]; POST (after 3 weeks hypoxia)) was 1.30 ± 0.10 gram. The LVPW ([1]; POST (after 3 weeks hypoxia)) was 0.18 ± 0.03, the MPA ([1]; POST (after 3 weeks hypoxia)) was 0.38 ± 0.07 and the “PA PG (mmHg)” value ([1]; POST (after 3 weeks hypoxia)) was 3.87 ± 0.95 mmHg. The “TV max PG (mmHg)” value ([1]; POST (after 3 weeks hypoxia)) was 4.85 ± 3.46 mmHg, the “CI (Ao)” value [1, 3] was 1.77 ± 1.30 and the “CI(PA)” value [1, 3] was 1.70 ± 1.43. The “CO (Ao)” value [1, 3] was 577 ± 418, the “CO (PA)” value [1, 3] was 551 ± 467 and the “FS (%)” value [1, 3] was 78 ± 5%. For the same molecule, the “LV Mass (gram)” value [1, 3] was 1.60 ± 0.30 gram, the LVPW [1, 3] was 0.21 ± 0.03 and the MPA [1, 3] was 0.48 ± 0.07. The “PA PG (mmHg)” value [1, 3] was 6.10 ± 5.52 mmHg, the RVAW [1, 3] was 0.11 and the genes differentially regulated (rat lung tissue) was “at least 179 genes”. The “Wt” value ([2]; POST (after 3 weeks hypoxia)) was 331 ± 15 g and the “Wt” value [2, 3] was 328 ± 10 g.
